Source: US7883893B2, “Method to assay test substances” (priority 2005, dated 2011)
Several values for one entry are separate records, joined by “and”; a condition that tells them apart may be missing. Identical values can stand only once. Entries after “also recorded” stand apart in the source; their conditions may differ.

What was measured:
Assay type in all cases: cell-based
[1] = tested on: Kir2.1Y channel; test: FRAC: recovery of Kir2.1Y channel activity (Rb+ efflux) after MTSET chemobleaching
Text: To assay the transit time of nacently surfaced receptor, we first modify, inhibit, or change (pulse) accessible functional molecules on the cell surface and then monitor the recovery of the original function/activity at subsequent time points (chase). One thus may determine the time required to populate the cell surface with newly inserted cell surface molecules (FIG. 1). Designing versions of this assay involves consideration of at least four factors. (i) A functional assay preferably monitors activity predominantly or only from molecules on the cell surface. […] (iii) The activity detection should be relatively short compared with the time required to repopulate the cell surface with functional molecules. (iv) The pulse should be rapid, quantitative, and optionally irreversible, thereby allowing detection of the activity contributed only by the newly arrived (or newly activated) proteins on the cell surface. These are considerations only, rather than mandatory properties. Deviation from one of these considerations may involve compensation by another. Furthermore, one of ordinary skill in the art will appreciate that treatment of cell surfaces can be restricted to a desirable area, such as the apical surface of epithelial cells. Thus, spatially restricted populations of cell surface receptors can be affected.
Rb^+ Flux Assay and Atomic Absorption Spectrometry. All assays shown were performed at room temperature in poly(L-lysine) (0.1 mg/ml)-coated 24-well microplates. For experiments with transiently transfected cells, ˜1×10^5 cells were seeded in each well the day before transfection (0.3 μg of DNA per well). Sodium butyrate at 5 mM was added 6-8 h after transfection. The assays were performed 24 h after transfection. […]
Rb^+ Efflux. […] The Rb^+ concentration in each sample was analyzed using the ICR 8000. Rb^+ efflux (%) was determined as: 100%×[Rb^+]sup/([Rb^+]sup+[Rb^+]lysate) where [Rb^+]sup represents the Rb^+ concentration in the supernatant, and [Rb^+]lysate represents the Rb^+ concentration in the cell lysate. […]

[2] = tested on: Kir2.1Y channel; test: Rb+ efflux of 293 cells stably expressing Kir2.1Y incubated with BFA without MTSET treatment
Procedure: (§1) Rb^+ Flux Assay and Atomic Absorption Spectrometry. All assays shown were performed at room temperature in poly(L-lysine) (0.1 mg/ml)-coated 24-well microplates. For experiments with transiently transfected cells, ˜1×10^5 cells were seeded in each well the day before transfection (0.3 μg of DNA per well). Sodium butyrate at 5 mM was added 6-8 h after transfection. The assays were performed 24 h after transfection. HEK 293 cells stably expressing either Kir2.1 or Kir2.1Y channel were seeded with a cell density of 2×10^5 cells per well. To enhance expression, 5 mM sodium butyrate was added 4-6 h after seeding. Cells then were cultured continuously for 16-20 h before experiments.
Rb^+ Efflux. To load Rb^+ into cells, we incubated cells in 0.5 ml per well 50/50 DMEM/F12 complete growth medium containing ˜5 mM RbCl at 37° C. for 3-4 h. Cells then were washed twice quickly with 1 ml per well non-Rb^+ medium to remove residual Rb^+. […] The Rb^+ concentration in each sample was analyzed using the ICR 8000. Rb^+ efflux (%) was determined as: 100%×[Rb^+]sup/([Rb^+]sup+[Rb^+]lysate) where [Rb^+]sup represents the Rb^+ concentration in the supernatant, and [Rb^+]lysate represents the Rb^+ concentration in the cell lysate. […]

[3] = tested on: Kir2.1; test: Rb+ efflux of 293 cells stably expressing Kir2.1 incubated with BFA without MTSET treatment; conditions: BFA 3 h, absence of MTSET treatment (data not shown)
Procedure: as §1
Rb^+ Efflux. […] The Rb^+ concentration in each sample was analyzed using the ICR 8000. Rb^+ efflux (%) was determined as: 100%×[Rb^+]sup/([Rb^+]sup+[Rb^+]lysate) where [Rb^+]sup represents the Rb^+ concentration in the supernatant, and [Rb^+]lysate represents the Rb^+ concentration in the cell lysate.
In the case of Kir2.1, we observed reproducible ˜30% reduction over the same period of incubation (data not shown). […] For Kir2.1Y, the combination of quantitative elimination of surface channel activity by MTSET, the >90% activity recovery, and little detectable reduction of Rb^+ efflux in the presence of BFA then would predict a 2-fold increase of protein signal on the cell surface. […]

[4] = tested on: Kir2.1Y channel; test: Rb+ influx assay of HEK 293 cells transiently transfected with Kir2.1Y, with MTSET treatment; conditions: MTSET treatment before the assay (2.5 mM per FIG. 2 legend)
Procedure: as §1
Rb^+ Influx. To perform the assay, cells first were incubated in 50/50 DMEM/F12 complete growth medium containing 5 mM RbCl for the indicated time periods before the medium was quickly aspirated. Cells then were washed twice quickly with non-Rb^+ DMEM/F12 medium and lysed with 0.5 ml of 0.1% SDS per well. The Rb^+ concentration in cell lysates was measured by atomic absorption spectrophotometry (ICR8000, Aurora Biomed, Vancouver), according to the manufacturer's user manual.
(§2) To monitor the specificity of the Rb^+ assay and the effectiveness of Rb^+ detection by atomic absorption spectrometry (19), we measured the Rb^+ uptake signals of transiently transfected cells at different times of incubation. […]

[5] = tested on: Kir2.1Y channel; test: Rb+ efflux assay of 293 cells stably expressing Kir2.1Y, with MTSET treatment; conditions: stable Kir2.1Y line, FIG. 2c
Procedure: as §1
Rb^+ Efflux. To load Rb^+ into cells, we incubated cells in 0.5 ml per well 50/50 DMEM/F12 complete growth medium containing ˜5 mM RbCl at 37° C. for 3-4 h. […] The Rb^+ concentration in each sample was analyzed using the ICR 8000. Rb^+ efflux (%) was determined as: 100%×[Rb^+]sup/([Rb^+]sup+[Rb^+]lysate) where [Rb^+]sup represents the Rb^+ concentration in the supernatant, and [Rb^+]lysate represents the Rb^+ concentration in the cell lysate.
as §2

[6] = target: T1, wild-type Kir2.1 (Homo sapiens, UniProt P63252); test: Rb+ flux assay of wild-type Kir2.1 with MTSET
T1 sequence (P63252 1-427): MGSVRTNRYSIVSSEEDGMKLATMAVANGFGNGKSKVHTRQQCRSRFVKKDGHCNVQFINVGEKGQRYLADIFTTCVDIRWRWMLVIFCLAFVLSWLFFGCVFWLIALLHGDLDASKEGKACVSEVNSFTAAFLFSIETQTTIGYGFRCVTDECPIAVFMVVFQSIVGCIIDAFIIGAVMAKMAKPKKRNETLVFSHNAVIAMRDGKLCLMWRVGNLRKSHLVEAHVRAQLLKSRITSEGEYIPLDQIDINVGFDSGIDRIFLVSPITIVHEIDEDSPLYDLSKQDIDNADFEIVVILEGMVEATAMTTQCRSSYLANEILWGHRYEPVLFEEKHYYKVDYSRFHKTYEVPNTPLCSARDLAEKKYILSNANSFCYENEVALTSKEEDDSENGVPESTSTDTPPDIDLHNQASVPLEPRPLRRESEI
Text: (§3) Earlier reports using electrophysiological recording have shown that membrane-nonpermeable MTS reagents such as MTSET reduce or abolish the current of Kir2.1 by covalently modifying the reduced form of cysteine residues already present in the channel protein or introduced by site-directed mutagenesis (18). It is not known whether or to what extent the modifications by MTS reagents will affect channel activity measured by a Rb^+ flux assay. We tested several cysteine positions of Kir2.1 mutants using MTSET, a positively charged cysteinyl sulfhydryl-specific reagent.

[7] = tested on: Kir2.1 mutation of C149; test: Electrophysiological recording and Rb+ assay of Kir2.1 C149 mutant with MTSET; conditions: electrophysiological recording and Rb+ assay (data not shown)
Text: as §3

## C[C@H]1CCC/C=C/[C@@H]2C[C@H](O)C[C@H]2[C@H](O)/C=C/C(=O)O1 [BFA, Brefeldin A]
[1]; 1 μM BFA at 37° C. for 3 h, added immediately after 5-min MTSET treatment (FIG. 5a)
  activity recovery: < 20% and 20%
[1]; recovery at 3 h, 37° C., FIG. 5b
  BFA concentration at which the effect reaches a plateau: > 0.6 µM
[2]; absence of MTSET treatment, 3-h incubation, FIG. 5b
  sensitivity of surface channel activity to BFA concentrations: no sensitivity
[2]; without MTSET treatment, 3-h incubation with BFA
  effect on activity of channels already on the cell surface (Rb+ efflux): did not affect the activity; also recorded: did not result in a detectable reduction
[3]
  reduction of Rb+ efflux activity: ~30%

## C[N+](C)(C)CCSS(C)(=O)=O.[Br-] [MTSET, [2-(trimethylammonium)ethyl]methanethiosulfonate bromide]
[4]
  specific Rb+ uptake signal abolished: > 80%
[5]
  Rb+ efflux signal after MTSET treatment: only background signals were observed
[6]
  effect of MTSET on channel activity: quantitatively nullified
[7]
  sensitivity to MTSET: loss of sensitivity

## C[C@@H]1C[C@@H]([C@H](O)CC2CC(=O)NC(=O)C2)C(=O)[C@@H](C)C1 [cycloheximide]
[1]; cycloheximide in FRAC experiments (data not shown)
  activity recovery: 40%
